Reference: patent US10517867B2, “Posaconazole derivative, pharmaceutical composition and use thereof” (priority 2016, dated 2019)

Columns and labels:
[1] = In vitro metabolic stability in human plasma; assay type: in vitro ADME; conditions: human, plasma, 37° C., 10 μM compound, read-out: Human plasma T1/2
Experimental: (§1) This example detects the metabolic stability of the compounds of the present disclosure in human (rat) plasma and intestinal S9 in vitro. In a human (rat) plasma reaction system, 990 μl of human (rat) plasma was taken and incubated at 37° C. for 5 minutes, and 10 μl of the compound mother liquor was used to initiate the reaction. In the human (rat) intestinal S9 stability experiment, in the order shown in Table 2 below, the samples were added and incubated in a 37° C. water bath to initiate the reaction, each sample performed in triplicates. Respectively, at 1 minute, 2 minutes, 5 minutes, 15 minutes, 30 minutes after the reaction began, 100 μL of each was taken and added to a centrifuge tube containing 400 μL of 0° C. precooled internal standard working solution. The reaction was terminated, vortexed and mixed for 1 minute, centrifuged at 10000×g for 10 minutes in a 4° C. precooled high-speed centrifuge, and the supernatant was detected with HPLC. The test results were used to calculate metabolic half-life using WinNonlin (version 6.2 Pharsight, Mountain View, Calif.) with a non-compartmental model.
(§2) Compound stock solution concentration: 1 mM
(§3) Reaction matrix: human (rat) plasma, intestinal S9 purchased from Research Institute for Liver Diseases (Shanghai) Co., Ltd.

[2] = In vitro metabolic stability in human intestine S9; assay type: in vitro ADME; conditions: human, 37° C., 10 μM compound, 1 mg/mL S9, NADPH regeneration system, read-out: Human intestine S9 T1/2
Experimental: as §1, §2, §3

[3] = In vitro metabolic stability in rat plasma; assay type: in vitro ADME; conditions: rat, plasma, 37° C., 10 μM compound, read-out: Rat plasma T1/2
Experimental: as §1, §2, §3

[4] = In vitro metabolic stability in rat intestine S9; assay type: in vitro ADME; conditions: rat, 37° C., 10 μM compound, 1 mg/mL S9, NADPH regeneration system, read-out: Rat intestine S9 T1/2
Experimental: as §1, §2, §3

[5] = tested on: Candida albicans ATCC10231; assay: Systemic fungal infection in mice, intravenous administration; assay type: in vivo, ICR mice
Experimental: (§4) ICR mice, weighing 18-22 g, male, provided by Hubei Experimental Animal Center.
(§5) Prior to the experiment, a small amount of Candida albicans was picked from an SDA (sacharomyces agar, the same below) medium kept at 4° C. with an inoculation loop and inoculated into 1 ml YPD (Yeast Extract Peptone Dextrose Medium) culture medium, cultured at 30° C. with 200 rpm shaking and activated for 16 hours, so that the fungus was in the late stage of exponential growth. Counted with a hemocytometer and the fungal solution concentration was adjusted to 1×10^3-5×10^3 CFU/ml with RPMI1640 medium (Roswell Park Memorial Institute 1640, the same below). Monoclonal Candida albicans on SDA plate was picked up, inoculated into 1 ml YPD (Yeast Extract Peptone Dextrose Medium, the same below) culture medium, cultured at 35° C., 200 rpm for 16 hours until late exponential growth phase. Candida albicans was inoculated into fresh medium for culturing for 6 hours at 1%, centrifuged at 1000×g for 5 minutes, washed with physiological saline three times until the supernatant was colorless, counted with a hemocytometer, and the cell concentration was adjusted to 5×10^6 cells/ml. A tail vein injection of 0.1 ml/10 g caused a systemic fungal infection in mice. […] A total of 7 days of observations were performed. All dead mice were burned with ethanol.

[6] = tested on: Candida albicans ATCC10231; assay: Systemic fungal infection in mice, intragastric administration; assay type: in vivo, ICR mice; conditions: Candida albicans, ATCC10231, po
Experimental: as §4
as §5, with “SDA” for “SDA (sacharomyces agar, the same below)”, “YPD” for “YPD (Yeast Extract Peptone Dextrose Medium)”, “1×10^3 to 5×10^3” for “1×10^3-5×10^3”, “medium.” for “medium (Roswell Park Memorial Institute 1640, the same below).”

[7] = Determination of solubility in deionized water (HPLC, external standard); conditions: 25 °C, water, thermodynamic from solid
[8] = 24 h, read-out: survival rate of mice, day 1
[9] = 48 h, read-out: survival rate of mice, day 2
[10] = 72 h, read-out: survival rate of mice, day 3
[11] = 96 h, read-out: survival rate of mice, day 4
[12] = 120 h, read-out: survival rate of mice, day 5
[13] = 144 h, read-out: survival rate of mice, day 6
[14] = 168 h, read-out: survival rate of mice, day 7
[15] = 24 h, read-out: survival rate of mice, day 1, 20 mg/kg intragastric once daily for 5 days, day 1
[16] = 48 h, read-out: survival rate of mice, day 2, 20 mg/kg intragastric once daily for 5 days, day 2
[17] = 72 h, read-out: survival rate of mice, day 3, 20 mg/kg intragastric once daily for 5 days, day 3
[18] = 96 h, read-out: survival rate of mice, day 4, 20 mg/kg intragastric once daily for 5 days, day 4
[19] = 120 h, read-out: survival rate of mice, day 5, 20 mg/kg intragastric once daily for 5 days, day 5
[20] = 144 h, read-out: survival rate of mice, day 6, 20 mg/kg intragastric once daily for 5 days, day 6
[21] = 168 h, read-out: survival rate of mice, day 7, 20 mg/kg intragastric once daily for 5 days, day 7
[22] = 24 h, 20 mg/kg intragastric once daily for 5 days, day 1, read-out: survival rate of mice, day 1
[23] = 48 h, 20 mg/kg intragastric once daily for 5 days, day 2, read-out: survival rate of mice, day 2
[24] = 72 h, 20 mg/kg intragastric once daily for 5 days, day 3, read-out: survival rate of mice, day 3
[25] = 96 h, 20 mg/kg intragastric once daily for 5 days, day 4, read-out: survival rate of mice, day 4
[26] = 120 h, 20 mg/kg intragastric once daily for 5 days, day 5, read-out: survival rate of mice, day 5
[27] = 144 h, 20 mg/kg intragastric once daily for 5 days, day 6, read-out: survival rate of mice, day 6
[28] = 168 h, 20 mg/kg intragastric once daily for 5 days, day 7, read-out: survival rate of mice, day 7

Compound | half-life at 10 µM [1] | half-life at 10 µM [2] | half-life at 10 µM [3] | half-life at 10 µM ([4]; pH 7.4) | solubility at 30 min [7] | responders at 20 mg/kg [6, 22] | responders at 20 mg/kg [6, 23] | responders at 20 mg/kg [6, 24] | responders at 20 mg/kg [6, 25] | responders at 20 mg/kg [6, 26] | responders at 20 mg/kg [6, 27] | responders at 20 mg/kg [6, 28] | further results
CC[C@@H]([C@H](C)OC(=O)OC(C)OC(=O)CCCCCOP(=O)([O-])[O-])n1ncn(-c2ccc(N3CCN(c4ccc(OC[C@@H]5CO[C@@](Cn6cncn6)(c6ccc(F)cc6F)C5)cc4)CC3)cc2)c1=O.[Na+].[Na+] (stereo partly drawn) [ST0063] | 0.85 ± 0.45 min | 16.3 ± 2.12 min | 1.21 ± 0.75 min | 19.4 ± 5.69 min | > 50 mg/mL |  |  |  |  |  |  |  | responders at 20 mg/kg [5, 8]: 100%; responders at 20 mg/kg [5, 9]: 100%; responders at 20 mg/kg [5, 10]: 90%; responders at 20 mg/kg [5, 11]: 90%; responders at 20 mg/kg [5, 12]: 90%; responders at 20 mg/kg [5, 13]: 90%; responders at 20 mg/kg [5, 14]: 90%; responders at 20 mg/kg [6, 15]: 90%; responders at 20 mg/kg [6, 16]: 90%; responders at 20 mg/kg [6, 17]: 80%; responders at 20 mg/kg [6, 18]: 80%; responders at 20 mg/kg [6, 19]: 80%; responders at 20 mg/kg [6, 20]: 80%; responders at 20 mg/kg [6, 21]: 80%
CC[C@@H]([C@H](C)OC(=O)OC(C)OC(=O)CCCCCCCOS(=O)(=O)[O-])n1ncn(-c2ccc(N3CCN(c4ccc(OC[C@@H]5CO[C@@](Cn6cncn6)(c6ccc(F)cc6F)C5)cc4)CC3)cc2)c1=O.[Na+] (stereo partly drawn) [ST0082] | 8.99 ± 2.52 min | 42.1 ± 13.7 min | 9.36 ± 1.56 min | 52.6 ± 8.69 min | > 50 mg/mL | 90% | 70% | 70% | 70% | 70% | 70% | 60% | 
CC[C@@H](C(C)OC(=O)OCOC(=O)CCCCCCOP(=O)([O-])[O-])n1ncn(-c2ccc(N3CCN(c4ccc(OC[C@@H]5CO[C@@](Cn6cncn6)(c6ccc(F)cc6F)C5)cc4)CC3)cc2)c1=O.[Na+].[Na+] (stereo partly drawn) [ST0074] | 0.86 ± 0.07 min | 20 ± 4.66 min | 1.26 ± 0.54 min | 18.2 ± 5.66 min | > 50 mg/mL |  |  |  |  |  |  |  | responders at 20 mg/kg [5, 8]: 100%; responders at 20 mg/kg [5, 9]: 100%; responders at 20 mg/kg [5, 10]: 90%; responders at 20 mg/kg [5, 11]: 90%; responders at 20 mg/kg [5, 12]: 90%; responders at 20 mg/kg [5, 13]: 90%; responders at 20 mg/kg [5, 14]: 90%; responders at 20 mg/kg [6, 15]: 100%; responders at 20 mg/kg [6, 16]: 100%; responders at 20 mg/kg [6, 17]: 90%; responders at 20 mg/kg [6, 18]: 80%; responders at 20 mg/kg [6, 19]: 80%; responders at 20 mg/kg [6, 20]: 80%; responders at 20 mg/kg [6, 21]: 70%
CC[C@@H]([C@H](C)OC(=O)OC(C)OC(=O)Cc1ccc(OS(=O)(=O)[O-])cc1)n1ncn(-c2ccc(N3CCN(c4ccc(OC[C@@H]5CO[C@@](Cn6cncn6)(c6ccc(F)cc6F)C5)cc4)CC3)cc2)c1=O.[Na+] (stereo partly drawn) [ST0080] | 12.8 ± 3.57 min | 40.3 ± 12.7 min | 13.3 ± 4.78 min | 45.4 ± 11.3 min |  | 90% | 90% | 90% | 80% | 70% | 70% | 60% | 
CC[C@@H](C(C)OC(=O)OC(C)OC(=O)CCCCCCCCCOP(=O)([O-])[O-])n1ncn(-c2ccc(N3CCN(c4ccc(OC[C@@H]5CO[C@@](Cn6cncn6)(c6ccc(F)cc6F)C5)cc4)CC3)cc2)c1=O.[Na+].[Na+] (stereo partly drawn) [ST0072] | 18.3 ± 1.97 min |  | 25.6 ± 13 min |  |  |  |  |  |  |  |  |  | half-life at 10 µM ([2]; intestinal S9): 46.8 ± 12.8 min; half-life at 10 µM ([4]; intestinal S9, pH 7.4): 39.9 ± 10.8 min
CC[C@@H](C(C)OC(=O)OC(C)OC(=O)CCCCOS(=O)(=O)[O-])n1ncn(-c2ccc(N3CCN(c4ccc(OC[C@@H]5CO[C@@](Cn6cncn6)(c6ccc(F)cc6F)C5)cc4)CC3)cc2)c1=O.[Na+] (stereo partly drawn) [ST0078] | 2.22 ± 0.58 min | 24.2 ± 8.75 min | 2.57 ± 0.74 min | 28.2 ± 5.65 min | > 50 mg/mL | 90% | 90% | 80% | 70% | 70% | 70% | 70% | 
CC[C@@H]([C@H](C)O)n1ncn(-c2ccc(N3CCN(c4ccc(OC[C@@H]5CO[C@@](Cn6c[n+](C(C)OC(=O)OCC[C@@H](N)C(=O)O)cn6)(c6ccc(F)cc6F)C5)cc4)CC3)cc2)c1=O.Cl.[Cl-] (stereo partly drawn) [ST0018] | 18.6 ± 5.63 min |  | 11.5 ± 1.23 min |  |  |  |  |  |  |  |  |  | half-life at 10 µM ([2]; intestinal S9): 50.1 ± 5.98 min; half-life at 10 µM ([4]; intestinal S9, pH 7.4): 45.2 ± 6.95 min
CC[C@@H](C(C)OC(=O)OC(C)OC(=O)CCCCCOS(=O)(=O)[O-])n1ncn(-c2ccc(N3CCN(c4ccc(OC[C@@H]5CO[C@@](Cn6cncn6)(c6ccc(F)cc6F)C5)cc4)CC3)cc2)c1=O.[Na+] (stereo partly drawn) [ST0079] | 2.56 ± 0.42 min | 28.7 ± 8.9 min | 2.06 ± 0.77 min | 27.9 ± 11.2 min | > 50 mg/mL | 90% | 90% | 90% | 80% | 80% | 70% | 70% | 
